Results as given in patent US20260022118A1, “HETEROCYCLIC COMPOUNDS AS NRAS INHIBITORS” (Board of Regents, The University of Texas System, priority 2023, published 2026).
Where two headings read alike, the source gives them in different places.

How the values were obtained:
[1] = biological target: NRAS G12D C118S (Homo sapiens (Human), UniProt P01111, C118S/G12D); assay: NRas G12D Surface Plasmon Resonance (SPR) binding assay; conditions: Avi-tagged biotinylated NRAS G12D C118S on streptavidin chip, 25° C., 1:1 kinetic or steady-state fit
Procedure, shortened: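 Biotinylated Avi-tagged NRAS G12D C118S was captured at about 600 RU on a streptavidin chip alongside a blank reference channel. Compounds were run as 10-point 1:3 dilution series in HBS-P+ pH 7.4 with 5 mM MgCl2 and 3% DMSO, using a 2–4% DMSO solvent correction. A control compound at 10 μM was injected periodically to check protein activity.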

[2] = test system: THP-1 cells expressing G12D (NRAS G12D); assay: Inhibition of NRAS G12D-mediated phosphorylation of ERK (AlphaLISA p-ERK1/2) in THP-1 cells; format: cell-based; conditions: 2 hours incubation, HBSS with 0% or 10% FBS, p-ERK1/2 (Thr202/Tyr204) AlphaLISA, read-out: pERK THP-1 IC50
Procedure, shortened: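 THP-1 cells expressing NRAS G12D, seeded in HBSS with 0% or 10% FBS, were exposed to test compound (1% DMSO final) for 2 h. p-ERK1/2 (Thr202/Tyr204) read by AlphaLISA SureFire Ultra. IC50 from curves normalized to no-inhibitor (100%) and 1 μM trametinib (0%) controls.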

Chain of NRAS G12D C118S (P01111 whole entry G12D/C118S): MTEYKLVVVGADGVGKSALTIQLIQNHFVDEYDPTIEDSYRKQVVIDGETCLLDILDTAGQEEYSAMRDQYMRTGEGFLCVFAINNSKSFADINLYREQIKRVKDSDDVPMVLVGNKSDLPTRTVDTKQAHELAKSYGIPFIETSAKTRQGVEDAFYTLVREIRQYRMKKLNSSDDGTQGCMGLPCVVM

SMILES	Kd [1] [nM]	IC50 ([2]; Homo sapiens, THP-1, 2 h) [nM]	IC50 [2] [nM]
C#Cc1c(F)ccc2cc(O)cc(-c3ccc4c([C@H]5[C@@H]6CNC[C@@H]65)nn(C)c4c3F)c12 [Example 27, 4-(3-((1R,5S,6r)-3-azabicyclo[3.1.0]hexan-6-yl)-7-fluoro-1-methyl-1H-indazol-6-yl)-5-ethynyl-6-fluoronaphthalen-2-ol]	3180	9560	–
C#Cc1c(F)ccc2cc(O)cc(-c3ncc4c(N5C[C@@H]6CC[C@H]5CN6)cn(C5CC5)c4c3F)c12 [Example 86, 4-(3-((1S,4S)-2,5-diazabicyclo[2.2.2]octan-2-yl)-1-cyclopropyl-7-fluoro-1H-pyrrolo[3,2-c]pyridin-6-yl)-5-ethynyl-6-fluoronaphthalen-2-ol]	151	767	–
C#Cc1c(F)ccc2cc(O)cc(-c3nc(OC4CCC4)c4c([C@H]5[C@@H]6CNC[C@@H]65)nn(C5CC5)c4c3F)c12 [Example 64, 4-(3-((1R,5S,6r)-3-azabicyclo[3.1.0]hexan-6-yl)-4-cyclobutoxy-1-cyclopropyl-7-fluoro-1H-pyrazolo[4,3-c]pyridin-6-yl)-5-ethynyl-6-fluoronaphthalen-2-ol]	24.3	480	–
C#Cc1c(F)ccc2cc(O)cc(-c3nc(OC)c4c(N5C[C@@H]6CC[C@H]5CN6)nn(C5CC5)c4c3F)c12 [Example 91, 4-(3-((1S,4S)-2,5-diazabicyclo[2.2.2]octan-2-yl)-1-cyclopropyl-7-fluoro-4-methoxy-1H-pyrazolo[4,3-c]pyridin-6-yl)-5-ethynyl-6-fluoronaphthalen-2-ol]	146	1650	–
C#Cc1c(F)ccc2cc(O)cc(-c3ncc4c([C@H]5[C@@H]6CNC(C(=O)OC)[C@@H]65)nn(C)c4c3F)c12 (stereo partly drawn) [Example 96, methyl (1S,5R,6S)-6-(6-(8-ethynyl-7-fluoro-3-hydroxynaphthalen-1-yl)-7-fluoro-1-methyl-1H-pyrazolo[4,3-c]pyridin-3-yl)-3-azabicyclo[3.1.0]hexane-2-carboxylate]	904	360	–
C#Cc1c(F)ccc2cc(O)cc(-c3ncc4c([C@H]5[C@@H]6CNC[C@@H]65)nn(C)c4c3F)c12 [Example 3, 4-(3-((1R,5S,6r)-3-azabicyclo[3.1.0]hexan-6-yl)-7-fluoro-1-methyl-1H-pyrazolo[4,3-c]pyridin-6-yl)-5-ethynyl-6-fluoronaphthalen-2-ol]	85	925	–
C#Cc1c(F)ccc2cc(O)cc(-c3ncc4c(N5CC6CCCC5CN6)nn(C)c4c3F)c12 (centres unmarked) [Example 36, 4-[3-(6,8-diazabicyclo[3.2.2]nonan-6-yl)-7-fluoro-1-methyl-pyrazolo[4,3-c]pyridin-6-yl]-5-ethynyl-6-fluoro-naphthalen-2-ol]	4030	12800	–
C#Cc1c(F)ccc2cc(O)cc(-c3ncc4c(N5CC6CCC5CN6)nn(C)c4c3F)c12 (centres unmarked) [Example 26, 4-(3-(2,5-diazabicyclo[2.2.2]octan-2-yl)-7-fluoro-1-methyl-1H-pyrazolo[4,3-c]pyridin-6-yl)-5-ethynyl-6-fluoronaphthalen-2-ol]	73.8	2070	–
C#Cc1c(F)ccc2cc(O)cc(-c3nc(C(C)C)c4c([C@H]5[C@@H]6CNC[C@@H]65)nn(C5CC5)c4c3F)c12 [Example 74, 4-(3-((1R,5S,6r)-3-azabicyclo[3.1.0]hexan-6-yl)-1-cyclopropyl-7-fluoro-4-isopropyl-1H-pyrazolo[4,3-c]pyridin-6-yl)-5-ethynyl-6-fluoronaphthalen-2-ol]	0.141	9.56	–
C#Cc1c(F)ccc2cc(O)cc(-c3ncc4c(C5CC6CCC5CN6)nn(C)c4c3F)c12 (centres unmarked) [Example 44, 4-[3-(2-azabicyclo[2.2.2]octan-5-yl)-7-fluoro-1-methyl-pyrazolo[4,3-c]pyridin-6-yl]-5-ethynyl-6-fluoro-naphthalen-2-ol]	201	–	6740
